# Test results published in patent publication US20200000756A1, “NEOSTIGMINE COMBINATION AND COMPOSITIONS” (priority 2017, published 2020).
# “Also recorded” adds a separate entry of the source.
# Test: Phase I single-blind study: single oral doses of neostigmine bromide with or without a single oral dose of ondansetron hydrochloride dihydrate
# Assay type: in vivo
# Details: six human subjects
# Protocol: The ability of the 5HT3-antagonists for preventing the gastro-intestinal adverse effects of orally administered neostigmine bromide in humans was tested.
# A Phase I study was conducted in six human subjects receiving a single oral dose of neostigmine bromide with or without a single oral dose of ondansetron hydrochloride dihydrate, as a representative 5HT3-antagonist. The study was a single center, single-blind.
# To be enrolled in the study, participants (aged 18 to 60 years of age) were required, to refrain from consuming xanthine, quinine and caffeine containing beverages, and to refrain from prolonged intensive physical exercise during the study conduct. […] The key criteria for exclusion of a subject from enrollment in the study were as follows:
# any clinically relevant acute or chronic disease which could interfere with the subjects' safety during the trial, expose them to undue risk, or interfere with the study objectives; history or presence of gastrointestinal, hepatic, or renal disease or other condition known to interfere with the absorption, distribution, metabolism or excretion of drugs; history of substance abuse, known drug addiction, or positive test for drugs of abuse or alcohol; history of drug or other significant allergy; ECG changes including QT interval prolongation and congenital long QT syndrome. […]
smiles,measurement,setting,value
"Cc1nccn1CC1CCc2c(c3ccccc3n2C)C1=O (racemic) [ondansetron, (±) 1,2,3,9-tetrahydro-9-methyl-3-[(2-methyl-1H-imidazol-1-yl)methyl]-4H-carbazol-4-one]",neostigmine dose reached before second intolerable dose (FID-2) on co-administration of ondansetron,neostigmine dose escalated together with oral ondansetron hydrochloride dihydrate 10 mg (8 mg base),enabled subjects to reach neostigmine doses as high as or higher than the recommended efficacious dose for the treatment of MG
same,gastro-intestinal AEs of neostigmine on co-administration of ondansetron,single oral ondansetron hydrochloride dihydrate 10 mg (equivalent to 8 mg ondansetron base) with oral neostigmine bromide at the first intolerable dose and above,attenuated gastro-intestinal AEs reported with neostigmine alone; also recorded: prevented the occurrence of gastro-intestinal AEs
